# In US20100063047A1 (KALYPSYS, INC., priority 2008, published 2010):
# Biological target: T1, human H1 (Homo sapiens, UniProt P35367)
# T1 construct: host or cells: CHO-K1, also expressing mitochondrion-targeted aequorin
# Assay: In vitro histamine H1 receptor cell-based aequorin bioluminescence antagonist assay
# Conditions: CHO-K1 cells expressing human H1 and aequorin; histamine at EC80; read-out: H1 Antagonist EC50
# Method: In vitro Histamine Receptor Cell-Based Assays
# The cell-based assays utilize an aequorin dependent bioluminescence signal. Doubly-transfected, stable CHO—K1 cell lines expressing human H1 or H4, mitochondrion-targeted aequorin, and (H4 only) human G protein Gα16 are obtained from Perkin-Elmer. Cells are maintained in F12 (Ham's) growth medium, containing 10% (vol./vol.) fetal bovine serum, penicillin (100 IU/mL), streptomycin (0.1 mg/mL), zeocin (0.25 mg/mL) and geneticin (0.40 mg/mL). Cell media components are from Invitrogen, Inc. One day prior to assay, the growth medium is replaced with the same, excluding zeocin and geneticin.
# For assay preparation, growth medium is aspirated, and cells are rinsed with calcium-free, magnesium-free phosphate-buffered saline, followed by two to three minute incubation in Versene (Invitrogen, Inc.) at 37° C. Assay medium (DMEM:F12 [50:50], phenol-red free, containing 1 mg/mL protease-free bovine serum albumin) is added to collect the released cells, which are then centrifuged. The cell pellet is re-suspended in assay medium, centrifuged once more, and re-suspended in assay medium to a final density of 5×10^6 cells/mL. Coelenterazine-h dye (500 μM in ethanol) is added to a final concentration of 5 μM, and mixed immediately. The conical tube containing the cells is then wrapped with foil to protect the light-sensitive dye. The cells are incubated for four hours further at room temperature (approximately 21° C.) with end-over-end rotation to keep them in suspension.
# Just before assay, the dye-loaded cells are diluted to 0.75×10^6 cells/mL (H1 receptor) or 1.5×10^6 cells/mL (H4 receptor) with additional assay medium. Cells are dispensed to 1536 well micro-titer plates at 3 μL/well. To assay receptor antagonism, 60 nl of 100× concentration test compounds in 100% dimethyl sulfoxide (DMSO) are dispensed to the wells, one compound per well, by passive pin transfer, and the plates are incubated for 15 minutes at room temperature. […] The pipette dispenses 3 μL/well of agonist (histamine, at twice the final concentration, where final concentration is a previously determined EC80) in assay medium, with concurrent bioluminescence detection. Agonist activity of test compounds is excluded by separate assays that measure response to test compounds immediately, without added histamine agonist.
# CCD image capture on the Lumilux includes a 5 second baseline read prior to agonist addition, and generally a 40 second read per plate after agonist addition. A decrease in bioluminescence signal (measured either as area-under-the-curve, or maximum signal amplitude minus minimum signal amplitude) correlates with receptor antagonism in a dose dependent manner. The negative control is DMSO lacking any test compound. For antagonist assays, the positive controls are diphenhydramine (2-Diphenylmethoxy-N,N-dimethylethylamine, 10 μM final concentration, H1 receptor) or JNJ7777120 (1-[(5-Chloro-1H-indol-2-yl)carbonyl]-4-methyl-piperazine, 10 μM final concentration, H4 receptor). Efficacy is measured as a percentage of positive control activity.
# T1 sequence (P35367 whole entry): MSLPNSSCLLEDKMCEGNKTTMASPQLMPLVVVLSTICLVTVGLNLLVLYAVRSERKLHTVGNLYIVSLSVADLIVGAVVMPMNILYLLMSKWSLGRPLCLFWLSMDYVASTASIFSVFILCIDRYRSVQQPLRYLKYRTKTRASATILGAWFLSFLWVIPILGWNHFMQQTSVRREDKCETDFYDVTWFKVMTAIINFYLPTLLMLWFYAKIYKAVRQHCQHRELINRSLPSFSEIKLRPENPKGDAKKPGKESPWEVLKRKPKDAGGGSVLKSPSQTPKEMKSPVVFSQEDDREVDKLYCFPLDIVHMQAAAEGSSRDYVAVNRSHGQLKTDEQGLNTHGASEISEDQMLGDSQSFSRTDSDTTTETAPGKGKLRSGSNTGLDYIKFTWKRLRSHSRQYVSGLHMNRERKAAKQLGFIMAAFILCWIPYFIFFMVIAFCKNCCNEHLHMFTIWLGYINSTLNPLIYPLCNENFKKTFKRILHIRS
row,Structure (SMILES),EC50 [µM]
1,"Cc1csc2ncnc(NCc3ccc(Cl)cc3)c12 [Example 131, N-[(4-chlorophenyl)methyl]-5-methylthieno[2,3-d]pyrimidin-4-amine]",> 10
2,"Cc1csc2ncnc(N3CCC(Cc4ccccc4)CC3)c12 [Example 240, 4-benzyl-1-{5-methylthieno[2,3-d]pyrimidin-4-yl}piperidine]",> 10
3,"Cc1csc2ncnc(N[C@H](C)c3ccccc3)c12 [Example 97, 5-methyl-N-[(1R)-1-phenylethyl]thieno[2,3-d]pyrimidin-4-amine]",> 10
4,"Cc1csc2ncnc(N3CCN(C(=O)OC(C)(C)C)CC3)c12 [Example 250, tert-butyl 4-{5-methylthieno[2,3-d]pyrimidin-4-yl}piperazine-1-carboxylate]",> 10
5,"Cc1sc2ncnc(N3CCN(S(=O)(=O)c4ccc(C(C)(C)C)cc4)CC3)c2c1C [Example 310, 4-(4-(4-tert-butylphenylsulfonyl)piperazin-1-yl)-5,6-dimethylthieno[2,3-d]pyrimidine]",> 10
6,"CCC(CO)Nc1ncnc2scc(C)c12 (stereo not shown) [Example 73, 2-({5-methylthieno[2,3-d]pyrimidin-4-yl}amino)butan-1-ol]",> 10
7,"Cc1csc2ncnc(NCc3ccc(C(F)(F)F)cc3)c12 [Example 164, 5-methyl-N-{[4-(trifluoromethyl)phenyl]methyl}thieno[2,3-d]pyrimidin-4-amine]",> 10
8,"Cc1ccc([C@H](C)Nc2ncnc3scc(C)c23)cc1 [Example 114, 5-methyl-N-[(1S)-1-(4-methylphenyl)ethyl]thieno[2,3-d]pyrimidin-4-amine]",> 10
9,"Cc1csc2ncnc(NC(C)CCCC(C)C)c12 (stereo not shown) [Example 108, 5-methyl-N-(6-methylheptan-2-yl)thieno[2,3-d]pyrimidin-4-amine]",> 10
10,"Cc1csc2c(NCCc3ccc(Cl)cc3)ncnc12 [Example 295, N-(4-chlorophenethyl)-7-methylthieno[3,2-d]pyrimidin-4-amine]",> 10
11,"CCCCNc1ncnc2scc(-c3ccccc3)c12 [Example 47, N-butyl-5-phenylthieno[2,3-d]pyrimidin-4-amine]",> 10
12,"Cc1csc2ncnc(NCCCc3ccccc3)c12 [Example 117, 5-methyl-N-(3-phenylpropyl)thieno[2,3-d]pyrimidin-4-amine]",> 10
13,"Cc1ccc(CNc2ncnc3scc(C)c23)cc1 [Example 100, 5-methyl-N-[(4-methylphenyl)methyl]thieno[2,3-d]pyrimidin-4-amine]",> 10
14,"Cc1ccc(N2CCN(c3ncnc4scc(C)c34)CC2)c(C)c1 [Example 258, 1-(2,4-dimethylphenyl)-4-{5-methylthieno[2,3-d]pyrimidin-4-yl}piperazine]",> 10
15,"CCC1CCC(Nc2ncnc3scc(C)c23)CC1 (stereo not shown) [Example 22, (4-Ethylcyclohexyl)(5-methylthiopheno[3,2-e]pyrimidin-4-yl)amine]",> 10
16,"Cc1csc2ncnc(NCc3cc(F)cc(F)c3)c12 [Example 135, N-[(3,5-difluorophenyl)methyl]-5-methylthieno[2,3-d]pyrimidin-4-amine]",> 10
17,"Cc1csc2ncnc(NC(C)CCc3ccccc3)c12 (stereo not shown) [Example 139, 5-methyl-N-(4-phenylbutan-2-yl)thieno[2,3-d]pyrimidin-4-amine]",> 10
18,"Cc1csc2ncnc(NCc3cccc(C(F)(F)F)c3)c12 [Example 165, 5-methyl-N-{[3-(trifluoromethyl)phenyl]methyl}thieno[2,3-d]pyrimidin-4-amine]",> 10
19,"Cc1csc2ncnc(NCCc3ccc4c(c3)OCO4)c12 [Example 175, N-[2-(2H-1,3-benzodioxol-5-yl)ethyl]-5-methylthieno[2,3-d]pyrimidin-4-amine]",> 10
20,"Clc1ccc(CCNc2ccnc3sccc23)cc1 [Example 38, N-(4-chlorophenethyl)thieno[2,3-b]pyridin-4-amine]",> 10
21,"OCCCCNc1ncnc2scc(-c3ccccc3)c12 [Example 312, 4-(5-phenylthieno[2,3-d]pyrimidin-4-ylamino)butan-1-ol]",> 10
22,"Cc1csc2ncnc(NCC(C)c3ccccc3)c12 (stereo not shown) [Example 119, 5-methyl-N-(2-phenylpropyl)thieno[2,3-d]pyrimidin-4-amine]",> 10

row,Structure (SMILES),EC50 [µM]
1,"CC(C)(CNc1ncnc2sccc12)N1CCOCC1 [Example 308, N-(2-methyl-2-morpholinopropyl)thieno[2,3-d]pyrimidin-4-amine]",> 10
2,"Cc1csc2ncnc(NC3CCC3)c12 [Example 58, N-cyclobutyl-5-methylthieno[2,3-d]pyrimidin-4-amine]",> 10
3,"CCC(CO)Nc1ncnc2scc(C)c12 (stereo not shown) [Example 72, 2-({5-methylthieno[2,3-d]pyrimidin-4-yl}amino)butan-1-ol]",> 10
4,"Cc1cccc(CNc2ncnc3scc(C)c23)c1 [Example 95, 5-methyl-N-[(3-methylphenyl)methyl]thieno[2,3-d]pyrimidin-4-amine]",> 10
5,"CCOc1ccccc1CNc1ncnc2scc(C)c12 [Example 146, N-[(2-ethoxyphenyl)methyl]-5-methylthieno[2,3-d]pyrimidin-4-amine]",> 10
6,"Cc1csc2ncnc(N3CCN(c4ccc([N+](=O)[O-])cc4)CC3)c12 [Example 273, 1-{5-methylthieno[2,3-d]pyrimidin-4-yl}-4-(4-nitrophenyl)piperazine]",> 10
7,"Cc1csc2ncnc(NC3CCCC(C)C3)c12 (stereo not shown) [Example 41, 5-methyl-N-(3-methylcyclohexyl)thieno[2,3-d]pyrimidin-4-amine]",> 10
8,"Cc1csc2ncnc(N[C@H](CO)Cc3ccccc3)c12 [Example 143, (2S)-2-({5-methylthieno[2,3-d]pyrimidin-4-yl}amino)-3-phenylpropan-1-ol]",> 10
9,"Cc1csc2ncnc(N3CCN(c4ccccc4C#N)CC3)c12 [Example 252, 2-(4-{5-methylthieno[2,3-d]pyrimidin-4-yl}piperazin-1-yl)benzonitrile]",> 10
10,"COC[C@@H]1CCCN1c1ncnc2scc(C)c12 [Example 205, (2S)-2-(methoxymethyl)-1-{5-methylthieno[2,3-d]pyrimidin-4-yl}pyrrolidine]",> 10
11,"CC(Nc1ncnc2sccc12)c1ccccc1 (stereo not shown) [Example 311, N-(1-phenylethyl)thieno[2,3-d]pyrimidin-4-amine]",> 10
12,"Cc1ccccc1CNc1ncnc2scc(C)c12 [Example 99, 5-methyl-N-[(2-methylphenyl)methyl]thieno[2,3-d]pyrimidin-4-amine]",> 10
13,"COc1ccccc1CNc1ncnc2scc(C)c12 [Example 123, N-[(2-methoxyphenyl)methyl]-5-methylthieno[2,3-d]pyrimidin-4-amine]",> 10
14,"Cc1csc2ncnc(N3CCN(c4ccc(Cl)cc4)CC3)c12 [Example 6, 4-(4-(4-chlorophenyl)piperazin-1-yl)-5-methylthieno[2,3-d]pyrimidine]",> 10
15,"Cc1csc2ncnc(NC3CCCCC3)c12 [Example 76, N-cyclohexyl-5-methylthieno[2,3-d]pyrimidin-4-amine]",> 10
16,"Cc1csc2ncnc(NCCCN3CCOCC3)c12 [Example 136, 5-methyl-N-[3-(morpholin-4-yl)propyl]thieno[2,3-d]pyrimidin-4-amine]",> 10
17,"COc1ccc(CNc2ncnc3scc(C)c23)cc1OC [Example 160, N-[(3,4-dimethoxyphenyl)methyl]-5-methylthieno[2,3-d]pyrimidin-4-amine]",> 10
18,"Cc1csc2ncnc(NCc3ccc(F)c(Cl)c3)c12 [Example 152, N-[(3-chloro-4-fluorophenyl)methyl]-5-methylthieno[2,3-d]pyrimidin-4-amine]",> 10
19,"Cc1csc2ncnc(NCc3ccccc3F)c12 [Example 104, N-[(2-fluorophenyl)methyl]-5-methylthieno[2,3-d]pyrimidin-4-amine]",> 10
20,"Cc1csc2ncnc(NC3CCN(Cc4ccccc4)C3)c12 (stereo not shown) [Example 168, 1-benzyl-N-{5-methylthieno[2,3-d]pyrimidin-4-yl}pyrrolidin-3-amine]",> 10
21,"Cc1csc2ncnc(NCCc3cccc(Cl)c3)c12 [Example 149, N-[2-(3-chlorophenyl)ethyl]-5-methylthieno[2,3-d]pyrimidin-4-amine]",> 10
